Assay results published in PMC9481312, “In Vitro α-Glycosidase Inhibition and In Silico Studies of Flavonoids Isolated from Pistacia integerrima Stew ex Brandis” (BioMed Research International, 2022).

Target: T1, α-glycosidase (intestinal α-glycosidase; α-glucosidase)
T1 construct: gene Si; crude native extract: supernatant of sonicated rat intestinal acetone powder in saline (100:1 w/v); not purified, isoenzyme not identified
Experiment: colorimetric p-nitrophenyl release, 96-well plate
Assay type: biochemical
Conditions: 5 mM p-nitrophenyl-α-D-glucopyranoside, 100 mM phosphate, pH 6.8, DMSO, 5 min preincubation; crude rat intestinal extract
Description: colorimetric p-nitrophenyl release, 96-well plate on α-glycosidase (intestinal α-glycosidase; α-glucosidase)

Structure (SMILES)	IC50 [µM]
COc1c(O)cc2oc(-c3ccc(O)c(O)c3)c(O)c(=O)c2c1O [compound 6, patuletin]	743.1 ± 1.32
C[C@H]1O[C@H](O[C@H]2[C@H](O)[C@@H](O)[C@@H](O[C@H]3[C@H](O)[C@@H](O)C(O)O[C@@H]3CO)O[C@@H]2CO)[C@H](O)[C@@H](O)[C@@H]1N[C@H]1C=C(CO)[C@@H](O)[C@H](O)[C@H]1O (stereo partly shown) [acarbose, reference compound]	841 ± 1.34
COc1cc(-c2oc3cc(O)c(OC)c(O)c3c(=O)c2O)ccc1O [compound 5, spinacetin]	826.4 ± 1.87

Other lines, results leading:

IC50 [µM]	Structure (SMILES)
287.3 ± 2.09	COc1cc(O)c2c(c1)O[C@H](c1ccc(O)cc1)CC2=O [compound 4, sakuranetin]
790 ± 2.31	COc1cc(O)c2c(c1)OC(c1ccc(O)cc1)C(O)C2=O (stereo not shown) [compound 3, 3,5,4′-trihydroxy,7-methoxy-flavanone]
754.2 ± 1.76	O=C1C[C@@H](c2ccc(O)cc2)Oc2cc(O)cc(O)c21 [compound 2, naringenin]
183.2 ± 1.22	O=C1c2c(O)cc(O)cc2O[C@H](c2ccc(O)cc2)[C@H]1O [compound 1, 3,5,7,4′-tetrahydroxy-flavanone]
